This note sets out measurements from patent publication US7575764B2, “Compositions comprising hypsizygus ulmarius extract” (ELC Management LLC, priority 2005, dated 2009).

For assay [1], the system named is LTB4-mediated neutrophil chemotaxis. Description: Inhibition of neutrophil (PMN) chemotaxis toward LTB4, Boyden chamber. It is filed as cell-based, human. As for the experimental part:
Three test samples, identical to powder samples 1, 2 and 3 in Example 1, were assayed for their ability to inhibit neutrophil chemotaxis toward Leukotriene B4. The assay is designed to assess the ability of a material to inhibit the migration of polymorphonuclear leukocytes (PMN) toward a known chemotactic agent, LTB4. […] The PMN rich fraction was removed and red blood cells (RBC) were lysed with hypotonic saline. The PMN were washed twice with Hank's Balanced Salt Solution (HBSS) and then resuspended in 5.0 ml HBSS with ions supplemented with 0.4% bovine serum albumin (Sigma). The concentration of cells was adjusted to 10×106 PMN/ml. Collected PMNs were greater than 95% pure and 98% viable as assessed by the trypan blue exclusion assay. The assay was performed using the Boyden chamber apparatus with blind well chambers fitted with 5 μm pore size filters (Millipore). The apparatus consists of two vertical chambers separated by a filter that contains pores of a size chosen such that the holes are large enough for the cells to actively crawl through them but not so large that the cells can physically fall through into the lower chamber. […] The chemoattractant used in the present experiment was 0.125 nM LTB4. Following incubation at 37° C. for 90 min., under a humidified atmosphere with 5% CO2, the filters were fixed with propanol and stained with haematoxylin and eosin. The PMN chemotactic response was determined by the distance to the leading front and the number of cells that migrated to the front. The distance to the leading front was determined at 400× magnification by the distance the majority of the cells migrated through the filter. The results were expressed as the average number of cells per high powered field at the leading (migratory) front (PMN/HPF). In this assay, 0.5% caffeine was used as a positive control. A negative control, with no anti-chemotactic agent, was also used. The results, shown in Table 4, are the percent reduction in chemotactic activity compared to the negative control.

The subject of assay [2] is IL-1β mediated adhesion of neutrophils. Description: Inhibition of IL-1β mediated adhesion of neutrophils (PMN) to human dermal microvascular endothelial cells. It is filed as cell-based. As for the experimental part: Three samples identical to those in example 4 were tested for their ability to inhibit endothelial adhesion of neutrophils by interfering with the effects of IL-1β. These samples were tested at final concentrations of 0.1% and 1% (w/v). Neutrophil adhesion was inhibited dose dependently with all samples tested. Adhesion of PMN to human dermal microvascular cells is a required step in the recruitment of leukocytes into the site of infection or irritation and was modeled for this assay in the following manner. […] The PMN rich fraction was removed and RBC were lysed with hypotonic saline. The PMN were washed twice with Hank's balanced salt solution (HBSS) and then resuspended in 5.0 ml HBSS with ions supplemented with 0.4% bovine serum albumin (Sigma). The concentration of cells was adjusted to 10×106 PMN/ml. Collected PMNs were greater than 95% pure and 98% viable as assessed by the trypan blue exclusion assay. […] In preliminary experiments the optimum concentrations of stimulatory agents (IL-1β, 10 U/ml and TPA, 5 ng/ml) were determined. […] After 30-45 min, the wells were read in an ELISA reader (Bio-Tek Instruments Inc, Winooslei, Vt., USA) at 570 nm. The level of adherence was given as the mean optical density (OD) reading at an OD570 for wells containing endothelial cells plus PMN minus the mean OD570 of wells containing endothelial cells alone.

In the case of `Cn1c(=O)c2c(ncn2C)n(C)c1=O` [caffeine], the “Percent reduction in chemotactic activity compared to the negative control” value in assay [1] (Example 2, 0.5% (w/v), 0.125 nM LTB4) was 96%. In addition, the “Percent reduction in chemotactic activity compared to negative control” value in assay [1] (Example 4, 0.1% (w/v), 0.125 nM LTB4) stood at 93%; in assay [1] (Example 6, concentration 0.5%) it was 94%; in assay [1] (Example 7, positive control at 0.5% concentration), 97%. Further, the “Percent reduction in adhesion activity compared to negative control” value in assay [2] (Example 5, 1.0% (w/v), IL-1β 10 U/ml) is on record as 64%; in assay [2] (Example 8, positive control at 1.0% concentration), 47%.
